Values joined by “and” are separate entries in the source; they are usually repeats but may differ in a detail not shown here. Equal values may be shown once. Blank lines part the entries; values can stand above or below the compound they belong to.
Legend:
Thermal stability = format: physicochemical
Ionization at skin pH = format: physicochemical; details: pH = pKa of the acids
Description: Naturally occurring fatty acids contain both polar (carboxylic acid group) and non-polar (alkyl chain) regions in their structure and the lower molecular weight homologs are sufficiently volatile to evaporate from the skin surface. Individually, these compounds have repellent activity. A number of these compounds were applied to non-absorptive gauze mounted between the human forearm and the olfactometer containing mosquitoes. These tests were done immediately after application to minimize losses due to evaporation (described fully in “Example 2” below). Because skin absorption and evaporative loss is minimized, this test can be regarded as a measure of the potency of the compounds. Homologs containing 8 to 11 carbon atoms had similar potency (percent repellency), which was greater than that of DEET (FIG. 3). Six carbon homologs and twelve carbon homologs had potency equal to or less than DEET. […] Percent repellency dropped dramatically with increasing numbers of carbon atoms in the molecule (FIG. 4). […] The nonanoic acid was preferably saturated. 4MOCTAN had the best overall performance at the zero and two hour time points. It should be noted for FIGS. 4 and 5 that the carboxylic acids exist on the skin at a pH which ionizes 50% of the molecules (pH=pKa of the acids). Since the ionized species are not volatile, the actual available dose is approximately 50% of that for DEET.

Aedes aegypti mosquitoes [1] = assay: Mosquito repellency on skin (olfactometer, human forearm); format: in vivo
Vapor pressure = format: physicochemical; details: at 125° C., estimated or extrapolated from literature values
Aedes aegypti mosquitoes [2] = assay: Mosquito repellency on gauze or polyester film (olfactometer); format: in vivo; details: cotton gauze or polyester film, 0.3 mg/cm^2, 3 minutes after application
Description: Olfactometer: A Fiensod and […] olfactometer, as modified by Bowen and Davis, measured the host-oriented flight response of female mosquitoes to volatile host emanations (Feinsod, F. M., and […]; An olfactometer for measuring host-seeking behavior of female Aedes aegypti (Diptera: Culicidae); J. Med. Entomol., 15: 282-285, 1979). The olfactometer (approximately 38 cm high) consisted of an upper and lower screened chamber with a closure between the chambers (FIG. 8). A fan placed above the upper chamber drew air through the apparatus at approximately 0.2 m/s. A temperature and humidity controlled chamber (5' wide by 6' long by 8' high) was constructed to house the test subject and the olfactometer. Rearing of Mosquitoes: A second environmental chamber, maintained at 27° C. and 80% humidity, was dedicated to the rearing of Aedes aegypti mosquitoes. […] Assays for Attraction of Mosquitoes to Human Subjects: A group of 30 volunteers, consisting of 14 females and 16 males and ranging in age from 24 to 68 years, was selected from the surrounding civilian population. Individuals were tested for their ability to attract Aedes aegypti mosquitoes contained in the olfactometer. Tests were conducted at a temperature of 27° C. and 50% relative humidity. […] A small fan was placed on top of the upper chamber to cause an air flow from the lower chamber to the upper chamber. A trial began when the closure between the upper and lower chamber was opened in the absence of a human host. […] This trial was repeated twice during a test session to obtain three replicates. Two additional test sessions, at time intervals of at least 1 week, were conducted to obtain at least 8-9 replicates for each of 24 subjects. Of the remaining 6 subjects, 3 were tested on two separate occasions for a total of 6 replicates per subject; 3 were tested on one occasion for a total of 3 replicates per subject. A total of 254 tests were conducted. Test compounds were dissolved in acetone or ethanol at a concentration of 150 mg/5 cc. Ethanol solutions of carboxylic acids were prepared just prior to use. Five hundred microliters of these solutions were applied to a 50 cm^2 circular area of a single layer of cotton gauze (Curity Curad gauze, Futuro Inc., Milford, Ohio) or nonwoven polyester film ([…], Inc.). The resultant dose was 0.3 mg/cm^2. […] The cup was attached to the bottom of the olfactometer (FIG. 8) so that air flowed through the stainless steel screen of the cup, through the treated gauze or film, and through the olfactometer. A volunteer's forearm was placed under the cup, so that air drawn into the cup and olfactometer was laden with human skin emanations. Tests were conducted as described in the preceding paragraph, “Assays for attraction of mosquitoes to human subjects”. Percent repellency was determined from the fraction of mosquitoes entering the lower chamber over a seven minute period. This assay is an approximate measure of the intrinsic repellency of a compound. Good repellency in this test is a necessary, but not sufficient, condition for good repellency on skin. Mosquito repellents must produce a vapor over the skin surface to confuse the host seeking behavior of the insect. However, volatilization must not be so great that the repellent action rapidly dissipates. Since volatilization from the skin will be different from an inanimate surface, skin tests are necessary to confirm that a compound will be a practical repellent.

Aedes aegypti mosquitoes [3] = assay: Mosquito repellency on skin (olfactometer, human forearm); format: in vivo; details: for Percent Repellency 2 h: 0.3 mg/cm^2, 2 h after application; for Percent Repellency 0 h: 0.3 mg/cm^2, 0 h after application
Description: Olfactometer: A Fiensod and Spielman olfactometer, as modified by Bowen and Davis, measured the host-oriented flight response of female mosquitoes to volatile host emanations (Feinsod, F. M., and A. Spielman; An olfactometer for measuring host-seeking behavior of female Aedes aegypti (Diptera: Culicidae); J. Med. Entomol., 15: 282-285, 1979). The olfactometer (approximately 38 cm high) consisted of an upper and lower screened chamber with a closure between the chambers (FIG. 8). A fan placed above the upper chamber drew air through the apparatus at approximately 0.2 m/s. A temperature and humidity controlled chamber (5′ wide by 6′ long by 8′ high) was constructed to house the test subject and the olfactometer.
Rearing of Mosquitoes: A second environmental chamber, maintained at 27° C. and 80% humidity, was dedicated to the rearing of Aedes aegypti mosquitoes. Routine shipments of eggs (American Biological Supply, Gainesville, Fla.) were used to maintain a continuous supply of adult 5-10 day old mosquitoes.
Assays for Attraction of Mosquitoes to Human Subjects: A group of 30 volunteers, consisting of 14 females and 16 males and ranging in age from 24 to 68 years, was selected from the surrounding civilian population. Individuals were tested for their ability to attract Aedes aegypti mosquitoes contained in the olfactometer. Tests were conducted at a temperature of 27° C. and 50% relative humidity. For each trial 15 avid adult female Aedes aegypti mosquitoes (5-10 days post-emergence) were placed in the upper chamber. A small fan was placed on top of the upper chamber to cause an air flow from the lower chamber to the upper chamber. A trial began when the closure between the upper and lower chamber was opened in the absence of a human host. The number of mosquitoes entering the lower chamber within a 3 minute period was recorded. The volunteer then placed his or her arm beneath the lower chamber and the number of mosquitoes flying from the upper chamber to the lower chamber was recorded for the time intervals 0-1, 1-3, 3-5 and 5-7 minutes. This trial was repeated twice during a test session to obtain three replicates. Two additional test sessions, at time intervals of at least 1 week, were conducted to obtain at least 8-9 replicates for each of 24 subjects. Of the remaining 6 subjects, 3 were tested on two separate occasions for a total of 6 replicates per subject; 3 were tested on one occasion for a total of 3 replicates per subject. A total of 254 tests were conducted.
Test compounds were dissolved in acetone or ethanol at a concentration of 300 mg/5 cc. Ethanol solutions of carboxylic acids were prepared just prior to use. Three hundred and fifty microliters of these solutions were applied to a 70 cm^2 rectangular area of the forearm. The resultant dose was 0.3 mg/cm^2. The repellent treated area was allowed to dry for 5 minutes prior to test. The treated skin area was placed under the olfactometer and tests were conducted as described in the preceding paragraph, “Assays for attraction of mosquitoes to human subjects”. Percent repellency was determined from the fraction of mosquitoes entering the lower chamber over a seven minute period.
A commercial formulation of DEET (Skintastic, S. C. Johnson, Racine,) was applied to a 100 cm^2 area on the forearm of 1 volunteer (subject 02) to give a dose of 0.3 mg/cm^2 of DEET. A formulation of C8C9C10 (5% octanoic, 5% nonanoic, 5% decanoic in Dow Corning 345 volatile silicone fluid) was applied to a 100 cm^2 on the subject's other arm to give a dose of 0.3 mg/cm^2 total acids. Application sites were placed under the olfactometer at 1, 2 and 4 hours after treatment. Untreated areas on each arm were placed under the olfactometer at the completion of the treated area tests to check the avidity of the mosquitoes. Tests were done on four separate test days. […]

[4] = test system: yellow fever mosquito (Aedes aegypti (L.)); details: human skin, approximately 2 mg/cm^2, time until two bites; DEET from Gilbert 1957; cited from earlier work
mosquitoes [5] = details: Hill et al. 1979; cited from earlier work
mosquitoes [6] = details: under laboratory conditions; cited from earlier work
Aedes aegypti mosquitoes [7] = details: 0.31 mg/cm^2; cited from earlier work
Aedes aegypti = details: 0.5 mg/cm^2 on the skin of man; cited from earlier work
[8] = at 125° C., literature values; cited from earlier work
[9] = on skin, listed as N,N-Diethyl-m-toluamide

- Thermal stability (Thermal stability): thermally unstable
- fraction ionized at skin pH (Ionization at skin pH): about 50%
- Vol. (vapor pressure), (est) (Vapor pressure): 6 (est) mm Hg
SMILES: CCCCC(C)CCC(=O)O (centres unmarked) [4-Methyloctanoic acid]
- repellency over a 4 hour period compared to DEET (Aedes aegypti mosquitoes [1]; 0.6 mg/cm^2 versus 0.3 mg/cm^2 DEET, FIG. 6): nearly equal to that of DEET
- Percent Repellency 2 h (Aedes aegypti mosquitoes [1]; on skin, 0.6 mg/cm^2, 2 h after application): 79 ± 21 (2) %
- Percent Repellency 4 h (Aedes aegypti mosquitoes [1]; on skin, 0.6 mg/cm^2, 4 h after application): 67 ± 9%
- pest or weed control at 0.3 mg/cm2 (Aedes aegypti mosquitoes [2]; Aedes aegypti, 0.05 h, read-out: Percent Repellency): 88 ± 18%
- repellency immediately after application to skin, compared to DEET (Aedes aegypti mosquitoes [3]; FIG. 4): comparable to DEET
- repellency two hours after skin application, ranking (Aedes aegypti mosquitoes [3]; FIG. 5): highest repellency
- Percent Repellency 2 h (Aedes aegypti mosquitoes [3]; on skin): 66 (1) %

SMILES: CCN(CC)C(=O)c1cccc(C)c1 [DEET, N,N,-diethyl-m-toluamide, reference compound]
- Protection time against yellow fever mosquitoes [4]: 363 min^b
- protects against mosquitoes for (mosquitoes [5]): 5 to 6 h
- Percent Repellency (Aedes aegypti mosquitoes [2]): 74%
- Percent Repellency (Aedes aegypti mosquitoes [2]; listed as N,N-Diethyl-m-toluamide): 74 ± 12%
- hours of protection (mosquitoes [6]): 5 to 7 h
- Protection time against Aedes aegypti mosquitoes (Aedes aegypti mosquitoes [7]): 5.5 h
- Protection Time (Aedes aegypti): 8 ± 2 h
- Percent Repellency 0 h (Aedes aegypti mosquitoes [3]; on skin): 95% and 95 ± 6%
- Percent Repellency 0 h (Aedes aegypti mosquitoes [3]; [9]): 95 ± 6 (3) %
- Percent Repellency 2 h (Aedes aegypti mosquitoes [3]; on skin): 89% and 89 ± 10%
- Percent Repellency 2 h (Aedes aegypti mosquitoes [3]; [9]): 89 ± 10 (3) %
- Percent Repellency 4 h (Aedes aegypti mosquitoes [3]; on skin, 0.3 mg/cm^2, 4 h after application): 83 ± 9%

SMILES: CCCCCC(=O)O [Hexanoic acid]
- Vol. (vapor pressure) [8]: 39.6 mm Hg

Source: US6953814B2, “Natural insect repellant” (Stratacor, Inc., priority 1997, dated 2005)
